Data published in patent US5457121A, “Cis-hexahydro-5-(1,2,3,4-tetrahydro-2-naphthalenyl)pyrrolo<3,4-c> pyrroles as inhibitors of serotonin reuptake” (Eli Lilly and Company, priority 1994, dated 1995).

Tested on: serotonin reuptake (5HT), rat cerebral cortex synaptosomes
Experiment: Inhibition of synaptosomal reuptake of 3H-serotonin (3H-5HT) in cortical synaptosomes
Assay type: biochemical, rat (male Sprague-Dawley)
Details: 37° C., 5 min, 50 nM 3H-5HT, read-out: IC50 (nM) 5HT (concentration needed to inhibit the uptake of 3H-5HT by 50%)
Description: This general procedure is described in Wong et al., Drug Development Research, 6, 397-403 (1985).
Male Sprague-Dawley rats (110-150 gm) from Harlan Industries (Cumberland, Ind.) were fed Purina Chow ad libitum for at least three days before being used in the study. Rats were killed by decapitation. Whole brains were removed and dissected. Cerebral cortex was homogenized in 9 volumes of a medium containing 0.32 M sucrose and 10 mM glucose. Crude synaptosomal preparations were isolated after differential centrifugation at 1,000 g for 10 min. and 17,000 g for 28 min. The final pellets were suspended in the same medium and kept in ice until use within the same day.
Synaptosomal reuptake of ^3 H-serotonin (^3 H-5-hydroxytryptamine, ^3 H-5HT) was determined as follows: Cortical synaptosomes (equivalent to 1 mg protein) were incubated at 37° C. for 5 min. in 1 mL of Krebs-bicarbonate medium containing also 10 mM glucose, 0.1 mM iproniazide, 1 mM ascorbic acid, 0.17 mM EDTA and 50 nM ^3 H-5HT. The reaction mixture was immediately diluted with 2 mL of ice chilled Krebs-bicarbonate buffer and filtered under vacuum with a cell harvester (Brandel, Gaithersburg, Md.). Filters were rinsed twice with approximately 5 mL ice chilled 0.9% saline and were transferred to a counting vial containing 10 mL of scintillation fluid (PCS, Amersham, Arlington Heights, Ill.). Radioactivity was measured by a liquid scintillation spectrophotometer. Accumulation of ^3 H-5HT at 4° C. represented the background and was subtracted from all samples.

Going from `CN1C[C@@H]2CN(C3CCc4ccccc4C3)C[C@@H]2C1` (relative stereo) [Example 1, cis-hexahydro-2-methyl-5-(1,2,3,4-tetrahydro-2-naphthalenyl) pyrrolo<3,4-c>pyrrole dimaleate] to `CN1C[C@@H]2CN(C3CCc4cccc(Cl)c4C3)C[C@@H]2C1` (relative stereo) [Example 2, cis-hexahydro-2-methyl-5-(1,2,3,4-tetrahydro-8-chloro-2-naphthalenyl)pyrrolo<3,4-c>pyrrole dimaleate], the IC50 falls from 122 nM to 42 nM (2.9-fold). The second is the more potent here.

Going from `COc1cccc2c1CC(N1C[C@H]3CN(C)C[C@H]3C1)CC2` (relative stereo) [Example 3, cis-hexahydro-2-methyl-5-(1,2,3,4-tetrahydro-8-methoxy-2-naphthalenyl)pyrrolo<3,4-c>pyrrole dimaleate] to `Cc1cccc2c1CC(N1C[C@H]3CN(C)C[C@H]3C1)CC2` (relative stereo) [Example 9, cis-hexahydro-2-methyl-5-(1,2,3,4-tetrahydro-8-methyl-2-naphthalenyl)pyrrolo<3,4-c>pyrrole dimaleate], the IC50 rises from 20 nM to 293 nM (15-fold). The first is the more potent here.

Compared with `CN1C[C@@H]2CN(C3CCc4cccc(O)c4C3)C[C@@H]2C1` (relative stereo) [Example 4, cis-hexahydro-2-methyl-5-(1,2,3,4-tetrahydro-8-hydroxy-2-naphthalenyl)pyrrolo<3,4-c>pyrrole dimaleate], `Cc1ccc(Br)c2c1CC(N1C[C@H]3CN(C)C[C@H]3C1)CC2` (relative stereo) [Example 10, cis-hexahydro-2-methyl-5-(1,2,3,4-tetrahydro-5-bromo-8-methyl-2-naphthalenyl)pyrrolo<3,4-c>pyrrole dimaleate] is 76-fold higher in IC50: 5.4 nM for the first, 413 nM for the second. The first is the more potent here.

`COc1ccc(Br)c2c1CC(N1C[C@H]3CN(C)C[C@H]3C1)CC2` (relative stereo) [Example 5, cis-hexahydro-2-methyl-5-(1,2,3,4-tetrahydro-5-bromo-8-methoxy-2-naphthalenyl)pyrrolo<3,4-c>pyrrole dimaleate] and `COc1ccc(Br)c2c1CC(N1C[C@H]3CNC[C@H]3C1)CC2` (relative stereo) [Example 8, cis-hexahydro-5-(1,2,3,4-tetrahydro-5-bromo-8-methoxy-2-naphthalenyl)pyrrolo<3,4-c>pyrrole dimaleate] are within 1.5-fold of each other in IC50: 38 nM for the first, 50 nM for the second.

Compared with `COc1cccc2c1CC(N1C[C@H]3CN(Cc4ccccc4)C[C@H]3C1)CC2` (relative stereo) [Example 6, cis-hexahydro-2-benzyl-5-(1,2,3,4-tetrahydro-8-methoxy-2-naphthalenyl)pyrrolo<3,4-c>pyrrole dimaleate], `COc1cccc2c1CC(N1C[C@H]3CNC[C@H]3C1)CC2` (relative stereo) [Example 7, cis-hexahydro-5-(1,2,3,4-tetrahydro-8-methoxy-2-naphthalenyl)pyrrolo<3,4-c>pyrrole dimaleate] is 2-fold lower in IC50: 60 nM for the first, 30 nM for the second.

Going from `COc1cccc2c1[C@@H](C)[C@@H](N1C[C@H]3CN(C)C[C@H]3C1)CC2` (relative stereo) [Example 11, cis-hexahydro-2-methyl-5-(cis-1-methyl-1,2,3,4-tetrahydro-8-methoxy-2-naphthalenyl)pyrrolo<3,4-c>pyrrole dimaleate] to `COc1cccc2c1[C@@H](C)[C@@H](N1C[C@H]3CNC[C@H]3C1)CC2` (relative stereo) [Example 12, cis-hexahydro-5-(cis-1-methyl-1,2,3,4-tetrahydro-8-methoxy-2-naphthalenyl)pyrrolo<3,4-c>pyrrole dimaleate], the IC50 rises from 65 nM to 340 nM (5.2-fold). The first is the more potent here.
